In US20050014647A1, “Method and composition for determining resistance to an acetohydroxy-acid synthase inhibitor” (priority 2001, published 2005):
Where “and” joins values, the source holds several entries; their conditions need not be identical. Equal entries are not always repeated.

How the values were obtained:
Type in all cases: cell-based
[1] = system: AHAS; assay: in vivo AHAS assay, canola leaf discs with external supplement; settings: for % of No Alaninor Pyruvate: Pyruvate 0 mM
Description: (§1) The procedure for the preparation of an in vivo AHAS assay is described below:
(§2) For the experiments, plants are grown from seed in soil in a greenhouse. Most experiments used wild type and imidazolinone resistant varieties of wheat, canola, rice, sunflower, and maize.
(§3) For the assay, a a microtiter plate is set up with 100 μl of one of the following solutions in each well: • a. Solution A: 10 mM phosphate buffer, pH 6; 10% Murashige and Skoog basal mineral salts (according to Murashige, T. and Skoog, F., Physiol. Plant., 15 473-497 (1962)); 500 μM CPCA (cyclopropyldicarboxylic acid); • b. Solution B: Solution A+alanine (or other supplements); • c. Solution C: Solution A+a pyruvate salt (or other supplements).
(§4) Plant material is excised from the newest emerging, rapidly growing leaf or stem from the test plant and placed in one of the microtiter plates. Usually, 5 mm leaf discs are cut from the newest emerging leaf. At least 2 discs per plant are cut. One disc is put in a well with Solution A and the other disc in a well with one of the other Solutions B or C (what solution are you using for background?).
(§5) After all wells in the microtiter plate contain plant material, the plate is covered with the microtiter plate cover and the plate with material is placed in a chamber with continuous fluorescent lights for 12 to 16 hours. The incubation is stopped by placing the plate in −20° C. freezer. After tissue and solutions freeze, the plate is thawed at room temperature and 25 μL of 5% sulfuric acid are added to each well. After incubation at 60° C. for 15 minutes, 175 μL of a freshly prepared mixture of α-naphthol (2.5%) and creatine (0.25%) in 2 N NaOH are added to each well and the plate is incubated at 60° C. for 15 minutes.
(§6) 200 μL from each well are transferred to a new plate and OD530 on microtiter plate is readed by a spectrophotometer.

[2] = system: AHAS; assay: in vivo AHAS assay, sunflower leaf discs with external supplement; settings: 14 hours
Description: as §1, §2
as §3, with “Solution A: 10 mM phosphate buffer, pH 6; 10% Murashige and Skoog basal mineral salts (according to Murashige, T. and Skoog, F., Physiol.” left out
as §4, §5, §6

[3] = system: AHAS; assay: in vivo AHAS assay, maize leaf discs with external supplement
Description: as §1, §2
as §3, with “Solution A: 10 mM phosphate buffer, pH 6; 10% Murashige and Skoog basal mineral salts (according to Murashige, T. and Skoog, F., Physiol.” left out
as §4, §5, §6

[4] = system: AHAS; assay: in vivo AHAS assay, rice leaf discs with external supplement
Description: as §1, §2
as §3, with “Solution A: 10 mM phosphate buffer, pH 6; 10% Murashige and Skoog basal mineral salts (according to Murashige, T. and Skoog, F., Physiol.” left out
as §4, §5, §6

[5] = system: AHAS; assay: in vivo AHAS assay, wheat leaf discs with external supplement; settings: 14 hours
Description: as §1, §2, §3
as §4, with “background?). […]” for “background?).”
as §6

[6] = system: AHAS; assay: in vivo AHAS assay, canola leaf discs with external supplement
[7] = canola, Alanine (100 mM), replicates 1-3, 14 hours
[8] = alanine 1.000 % vs 0.000 %, 14 hours
[9] = alanine 1.000 %, 14 hours, 500 μM CPCA

## C[C@H](N)C(=O)O [Alanine, L-alanine]
[1]; Canola, alanine 1.000 % vs 0.000 %, 14 hours
  Ratio (Ala/No Ala): 5.4
[1]; Canola, alanine 1.000 %, 14 hours, 500 μM CPCA
  OD 530: 2.838
[1]; Canola, pH 4, alanine 1 %, 14 hours
  in vivo AHAS activity, Alanine (%) 1: 2.271
[1]; Canola, pH 5, 14 hours
  Ratio (Ala/No Ala): 2.94
[1]; Canola, pH 5, alanine 1 %, 14 hours
  in vivo AHAS activity, Alanine (%) 1: 2.383
[1]; Canola, pH 6, 14 hours
  Ratio (Ala/No Ala): 3.12
[1]; Canola, pH 6, alanine 1 %, 14 hours
  in vivo AHAS activity, Alanine (%) 1: 2.036
[1]; Canola, pH 7, 14 hours
  Ratio (Ala/No Ala): 2.38
[1]; canola 45A71, alanine 0.063 % compared with no alanine
  Increased Activity (%): 150%
[1]; canola 45A71, alanine 0.063 %, pH 6, 14 hours
  OD 530: 0.785
[1]; canola 45A71, alanine 0.125 % compared with no alanine
  Increased Activity (%): 182%
[1]; canola 45A71, alanine 0.125 %, pH 6, 14 hours
  OD 530: 0.955
[1]; canola 45A71, alanine 0.25 % compared with no alanine
  Increased Activity (%): 181%
[1]; canola 45A71, alanine 0.25 %, pH 6, 14 hours
  OD 530: 0.946
[1]; canola 45A71, alanine 0.5 % compared with no alanine
  Increased Activity (%): 198%
[1]; canola 45A71, alanine 0.5 %, pH 6, 14 hours
  OD 530: 1.038
[1]; canola 45A71, alanine 1 % compared with no alanine
  Increased Activity (%): 262%
[1]; canola 45A71, alanine 1 %, pH 6, 14 hours
  OD 530: 1.373
[1]; canola 45A71, alanine 2 % compared with no alanine
  Increased Activity (%): 290%
[1]; canola 45A71, alanine 2 %, pH 6, 14 hours
  OD 530: 1.518
[1]; canola 45A71, alanine 4 % compared with no alanine
  Increased Activity (%): 190%
[1]; canola 45A71, alanine 4 %, pH 6, 14 hours
  OD 530: 0.997
[1]; canola Westar, alanine 0.063 % compared with no alanine
  Increased Activity (%): 195%
[1]; canola Westar, alanine 0.063 %, pH 6, 14 hours
  OD 530: 0.978
[1]; canola Westar, alanine 0.125 % compared with no alanine
  Increased Activity (%): 177%
[1]; canola Westar, alanine 0.125 %, pH 6, 14 hours
  OD 530: 0.885
[1]; canola Westar, alanine 0.25 % compared with no alanine
  Increased Activity (%): 239%
[1]; canola Westar, alanine 0.25 %, pH 6, 14 hours
  OD 530: 1.197
[1]; canola Westar, alanine 0.5 % compared with no alanine
  Increased Activity (%): 229%
[1]; canola Westar, alanine 0.5 %, pH 6, 14 hours
  OD 530: 1.149
[1]; canola Westar, alanine 1 % compared with no alanine
  Increased Activity (%): 396%
[1]; canola Westar, alanine 1 %, pH 6, 14 hours
  OD 530: 1.983
[1]; canola Westar, alanine 2 % compared with no alanine
  Increased Activity (%): 250%
[1]; canola Westar, alanine 2 %, pH 6, 14 hours
  OD 530: 1.25
[1]; canola Westar, alanine 4 % compared with no alanine
  Increased Activity (%): 201%
[1]; canola Westar, alanine 4 %, pH 6, 14 hours
  OD 530: 1.009
[1]; canola, Alanine 0.5 %, 14 hours
  % of No Alaninor Pyruvate: 144%
[1]; canola, Alanine 1 %, 14 hours
  % of No Alaninor Pyruvate: 174%
[1]; [7]
  % of 0/0: 129% and 104% and 100%
  OD 530, Avg. of the treated discs: 1.538 and 1.574 and 1.298
[1]; canola, Alanine (100 mM), single treated discs, replicates 1-3, 14 hours
  OD 530, Treated: 1.529 and 1.487 and 1.335 and 1.760 and 1.691 and 1.551 and 1.498 and 1.571 and 1.007
[2]; Sunflower, alanine 1.000 % vs 0.000 %
  Ratio (Ala/No Ala): 3.8
[2]; Sunflower, alanine 1.000 %, 500 μM CPCA
  OD 530: 1.857
[2]; Sunflower, pH 4
  Ratio (Ala/No Ala): 4.67
  in vivo AHAS activity, Alanine (%) 1: 1.682
[2]; Sunflower, pH 5
  Ratio (Ala/No Ala): 3.62
  in vivo AHAS activity, Alanine (%) 1: 0.745
[2]; Sunflower, pH 6
  Ratio (Ala/No Ala): 5.20
  in vivo AHAS activity, Alanine (%) 1: 0.843
[2]; Sunflower, pH 7
  Ratio (Ala/No Ala): 4.10
  in vivo AHAS activity, Alanine (%) 1: 0.48
[2]; sunflower, 1% Alanine, disc size 0.25 cm^2, 7 discs
  OD 530: 1.861
[2]; sunflower, 1% Alanine, disc size 0.56 cm^2, 3 discs
  OD 530: 0.695
[2]; sunflower, 1% Alanine, disc size 0.82 cm^2, 2 discs
  OD 530: 0.646
[2]; sunflower, 1% Alanine, disc size 1.76 cm^2, 1 disc
  OD 530: 0.447
[3]; [8]
  Ratio (Ala/No Ala): 1.7
[3]; [9]
  OD 530: 0.203
[3]; pH 4, 14 hours
  Ratio (Ala/No Ala): 1.89
[3]; pH 4, alanine 1 %, 14 hours
  in vivo AHAS activity, Alanine (%) 1: 0.909
[3]; pH 5, 14 hours
  Ratio (Ala/No Ala): 3.50
[3]; pH 5, alanine 1 %, 14 hours
  in vivo AHAS activity, Alanine (%) 1: 0.847
[3]; pH 6, 14 hours
  Ratio (Ala/No Ala): 5.71
[3]; pH 6, alanine 1 %, 14 hours
  in vivo AHAS activity, Alanine (%) 1: 1.033
[3]; pH 7, 14 hours
  Ratio (Ala/No Ala): 4.32
[3]; pH 7, alanine 1 %, 14 hours
  in vivo AHAS activity, Alanine (%) 1: 1.128
[4]; [8]
  Ratio (Ala/No Ala): 7.0
[4]; [9]
  OD 530: 1.257
[4]; pH 4, 14 hours
  Ratio (Ala/No Ala): 2.83
[4]; pH 4, alanine 1 %, 14 hours
  in vivo AHAS activity, Alanine (%) 1: 0.903
[4]; pH 5, 14 hours
  Ratio (Ala/No Ala): 3.57
[4]; pH 5, alanine 1 %, 14 hours
  in vivo AHAS activity, Alanine (%) 1: 0.731
[4]; pH 6, 14 hours
  Ratio (Ala/No Ala): 3.65
[4]; pH 6, alanine 1 %, 14 hours
  in vivo AHAS activity, Alanine (%) 1: 0.639
[4]; pH 7, 14 hours
  Ratio (Ala/No Ala): 3.31
[4]; pH 7, alanine 1 %, 14 hours
  in vivo AHAS activity, Alanine (%) 1: 0.58
[5]; alanine 1.000 % vs 0.000 %
  Ratio (Ala/No Ala): 2.1
[5]; alanine 1.000 %, 500 μM CPCA
  OD 530: 0.832
[6]; pH 4, 14 hours
  Ratio (Ala/No Ala): 2.78
[6]; pH 7, alanine 1 %, 14 hours
  in vivo AHAS activity, Alanine (%) 1: 2.299
